Read-outs that look alike come from different tables or passages of the source.
Legend:
[1] = test system: T. cruzi Y strain trypomastigote forms; test: Anti-T. cruzi activity against trypomastigote forms; type: cell-based; details: for EC50: read-out: Y strain T. cruzi EC50 Trypomastigote; for trypanosomicidal activity (parasite mortality): at 100 μmol·L^–1, trypomastigotes; for SI (selectivity index): mammalian cell CC50 versus trypomastigote EC50
Description: (§1) The T. cruzi Y strain was selected for this study due to its known partial sensitivity to benznidazole chemotherapy.
Trypomastigote forms of T. cruzi (2.5 × 10^5 parasites/well) were incubated in 96-well plates with serial dilutions of the hybrid compounds (100, 50, 25, and 12.5 μmol·L^–1) for 24 h at 37 °C in a humidified 5% CO2 atmosphere. Following incubation, parasite viability was assessed under an optical microscope by evaluating motility, and the number of live parasites was quantified using a Neubauer chamber. Untreated parasite cultures were maintained in parallel as negative controls. The mortality percentage was calculated by comparing the number of live parasites in treated wells to that of untreated controls. All experiments were conducted in triplicate with at least two technical replicates per concentration. EC50 values were determined by nonlinear regression using GraphPad Prism 8 and CompuSyn software (Biosoft, U.K.).

[2] = test system: T. cruzi Y strain amastigote forms; test: Anti-T. cruzi activity against intracellular amastigote forms in infected Vero or H9c2 cells; type: cell-based, Trypanosoma cruzi; details: Vero or H9c2 cells infected with amastigote forms, 48 h of incubation, fixed concentration 50 μmol·L^–1
Description: as §1
Vero or H9c2 cells (7.5 × 10^3 cells/well) were seeded on sterile glass coverslips placed in 24-well plates and incubated for 24 h at 37 °C in 5% CO2 to allow cell adhesion. Following this period, cells were infected with trypomastigote forms of T. cruzi Y strain at a ratio of 20 parasites per cell. After 24 h of parasite-host interaction, noninternalized parasites were removed by washing with fresh medium, and the infected monolayers were incubated for 48 h with the hybrid compounds at a fixed concentration of 50 μmol·L^–1, following toxicity parameters. Infected but untreated cells were included as negative controls in all experiments. At the end of the treatment period, coverslips were washed with medium, fixed with methanol, and stained with Giemsa solution. After drying, the coverslips were mounted onto microscope slides using Entellan (Merck) and analyzed under a light microscope at 100× magnification. At least 200 cells were counted per coverslip, and only intracellular parasite forms with characteristic morphology were considered for analysis. The infection index was determined by the percentage of infected cells relative to the total number of cells analyzed. The inhibition percentage was calculated based on the reduction in infection in treated samples compared to the untreated control. Dose–response curves were constructed using GraphPad Prism 8 and CompuSyn (Biosoft, U.K.). All experiments were performed in triplicate, with at least two technical replicates per condition.

[3] = Cell viability assay (resazurin), H9c2 cells; type: cell-based; details: rat, resazurin method, 48 h incubation, read-out: Cytotoxicity CC50 H9c2
Description: (§2) Vero and H9c2 cells (2 × 10^3 cells/well) were seeded in 96-well plates in Dulbecco’s modified Eagle’s medium (DMEM) supplemented with 5% fetal bovine serum (FBS) and incubated for 24 h at 37 °C in a humidified atmosphere with 5% CO2. After incubation, the medium was replaced with fresh DMEM + 5% FBS containing serial dilutions of each hybrid compound (1400 to 175 μmol·L^–1). Cells were exposed to the compounds for 48 h. Four wells with untreated cells served as a positive control. Additionally, eight wells without cells were maintained as negative controls: four containing DMEM + 5% FBS + resazurin (1 mmol·L^–1), and four containing only DMEM + 5% FBS. After the 48-h incubation, the treatment medium was removed and replaced with DMEM + 5% FBS containing 10% resazurin solution (1 mmol·L^–1). Plates were incubated for an additional 6 h, and then absorbance was measured at 570 and 600 nm using a microplate reader. Dose–response curves were constructed using GraphPad Prism 8 software, and CC50 values were determined by nonlinear regression.

[4] = Cell viability assay (resazurin), Vero cells; type: cell-based; details: African green monkey, Vero cells; resazurin method; 48 h incubation; read-out: Cytotoxicity CC50 Vero
Description: as §2

[5] = Trypanosoma cruzi, 24 h, 24 h of incubation, Y strain

SMILES | EC50 ([1]; Trypanosoma cruzi, 24 h) [µM] | EC50 ([1]; 24 h of incubation, Y strain, listed as (−)-29) [µM] | EC50 ([1]; 24 h of incubation, Y strain) [µM] | trypanosomicidal activity (parasite mortality) ([1]; 24 h) | EC50 [2] [µM] | EC50 [1, 5] [µM] | EC50 ([2]; Trypanosoma cruzi) [µM] | CC50 at 48 h [3] [µM] | CC50 at 48 h [4] [µM] | mortality at 100 µM ([1]; Trypanosoma cruzi, 24 h, read-out: trypanosomicidal activity (parasite mortality)) [%] | SI (selectivity index) [1]
C=CCc1ccc(O)c(OC)c1 [Eug, eugenol] | 500 |  |  |  |  |  |  |  |  |  | 
COc1cc(CC(O)Cn2ccnc2)cc([N+](=O)[O-])c1OCc1ccccc1 (single isomer, unassigned; (-)) [(-)-29] |  | ~29 | 29.9 | approximately 99% | > 50 |  |  |  |  |  | 
COc1cc(CC(O)Cn2ccnn2)cc([N+](=O)[O-])c1O (racemic) [Compound 31, (±)-4-(2-Hydroxy-3-(1H-1,2,3-triazol-1-yl)propyl)-2-methoxy-6-nitrophenol] |  |  |  |  |  | > 100 | > 50 | > 1300 | > 1300 |  | 
COc1cc(CC(O)Cn2ccnc2)ccc1O (racemic) [Compound 24, (±)-4-(2-Hydroxy-3-(1H-imidazol-1-yl)propyl)-2-methoxyphenol] |  |  |  |  |  | > 100 | > 50 | > 1300 | > 1300 |  | 
COc1cc(CC(O)Cn2ccnc2)cc([N+](=O)[O-])c1OCc1ccccc1 (single isomer, unassigned; (+)) [(+)-29] |  |  | 28.8 |  | > 50 | ~29 |  |  |  | ~99 | 
COc1cc(CC(O)Cn2cncn2)cc([N+](=O)[O-])c1O (racemic) [Compound 19, (±)-4-(2-Hydroxy-3-(1H-1,2,4-triazol-1-yl)propyl)-2-methoxy-6-nitrophenol] |  |  |  |  |  | > 100 | > 50 | > 1300 | > 1300 |  | 
COc1cc(CC(O)Cn2cncn2)ccc1OCc1ccccc1 (racemic) [Compound 22, (±)-1-(4-(Benzyloxy)-3-methoxyphenyl)-3-(1H-1,2,4-triazol-1-yl)propan-2-ol] |  |  |  |  |  | > 100 | > 50 | > 1300 | > 1300 |  | 
COc1ccc(CC(O)Cn2ccnn2)cc1OC (racemic) [Compound 32, (±)-1-(3,4-Dimethoxyphenyl)-3-(1H-1,2,3-triazol-1-yl)propan-2-ol] |  |  |  |  |  | > 100 | > 50 | > 1300 | > 1300 |  | 
COc1cc(CC(O)Cn2ccnc2)cc([N+](=O)[O-])c1OC (racemic) [Compound 27, (±)-1-(3,4-Dimethoxy-5-nitrophenyl)-3-(1H-imidazol-1-yl)propan-2-ol] |  |  |  |  |  | > 100 | > 50 | > 1300 | > 1300 |  | 
COc1cc(CC(O)Cn2cncn2)cc([N+](=O)[O-])c1OC (racemic) [Compound 21, (±)-1-(3,4-Dimethoxy-5-nitrophenyl)-3-(1H-1,2,4-triazol-1-yl)propan-2-ol] |  |  |  |  |  | > 100 | > 50 | > 1300 | > 1300 |  | 
COc1cc(CC(O)Cn2ccnc2)ccc1OCc1ccccc1 (racemic) [Compound 28, (±)-1-(4-(Benzyloxy)-3-methoxyphenyl)-3-(1H-imidazol-1-yl)propan-2-ol] |  |  |  |  |  | > 100 | > 50 | > 1300 | > 1300 |  | 
COc1cc(CC(O)Cn2ccnc2)cc([N+](=O)[O-])c1OCc1ccccc1 (racemic) [Compound 29, (±)-1-(4-(Benzyloxy)-3-methoxy-5-nitrophenyl)-3-(1H-imidazol-1-yl)propan-2-ol] |  |  | 26.5 | approximately 99% |  |  | > 50 | > 1300 | > 1300 |  | >49
COc1cc(CC(O)Cn2ccnn2)ccc1O (racemic) [Compound 30, (±)-4-(2-Hydroxy-3-(1H-1,2,3-triazol-1-yl)propyl)-2-methoxyphenol] |  |  |  |  |  | > 100 | > 50 | > 1300 | > 1300 |  | 
COc1cc(CC(O)Cn2ccnn2)cc([N+](=O)[O-])c1OCc1ccccc1 (racemic) [Compound 34, (±)-1-(4-(Benzyloxy)-3-methoxy-5-nitrophenyl)-3-(1H-1,2,3-triazol-1-yl)propan-2-ol] |  |  |  |  |  | 38.1 | > 50 | > 1300 | > 1300 |  | >34

Source: publication PMC12444550, “Design, Synthesis, and Trypanosomicidal Evaluation of Eugenol-Based Azole Hybrids: Discovery of an In Vitro Active and Selective Compound” (ACS Omega, 2025)
